In the supplement of paper PMC11986102:

Tests used:
Test in all cases: OD600 after 10 h growth (baseline-subtracted); higher = more bacterial growth (less inhibition)
[1] = test system: Escherichia coli CFT073 (UPEC)
Procedure: (§1)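 Broth microdilution growth assay in Mueller Hinton broth, 100 µL in 96-well plates, inoculated 1:200 from OD600 0.1 overnight cultures by pinning, 37 °C with shaking at 800 rpm, 1:2 serial dilutions from 128 µg/mL (64 µg/mL for Ebastine). The read-out is OD600 after 10 h; curves were baseline-corrected by subtracting the minimum of the 2nd-4th measurements. Three biological replicates, with water and DMSO no-compound controls.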

Escherichia coli IAI1 = test system: Escherichia coli IAI1
Procedure: as §1

[2] = test system: Klebsiella pneumoniae MKP103
Procedure: as §1

[3] = test system: Pseudomonas aeruginosa PA14
Procedure: as §1

[4] = test system: Staphylococcus aureus Newman
Procedure: as §1

Cc1c(Cl)c(C)[n+]([O-])c(Cl)c1-c1noc(-c2cc(O)c(O)c([N+](=O)[O-])c2)n1 [Opicapone]
OD600 after 10 h growth
Details	Escherichia coli IAI1	[1]	[2]	[3]	[4]
0.1 µg/mL	0.811	0.786	0.664	0.743	1.07
0.2 µg/mL	0.855	0.788	0.668	0.743	1.07
0.5 µg/mL	0.822	0.94	0.669	0.764	1.07
1 µg/mL	0.815	0.787	0.681	0.829	1.07
2 µg/mL	0.818	0.786	0.744	0.747	1.09
4 µg/mL	0.802	0.872	0.791	0.81	1.18
8 µg/mL	0.797	1.02	0.839	0.709	1.07
16 µg/mL	0.798	0.787	0.781	0.677	0.413
32 µg/mL	0.801	0.775	0.682	0.678	0.371
64 µg/mL	0.792	0.796	0.669	0.658	0.466
128 µg/mL	0.767	0.758	0.632	0.603	0.356
